Laboratory results as given in US20190358345A1, “A[…]-IN[…] NANOPARTICLES AND PREPARATION METHODS THEREFOR” (CHINA PHARMACEUTICAL UNIVERSITY, priority 2017, published 2019).

Test: Dynamic light scattering of nanoparticles
Type: physicochemical
Settings: self-assembled in aqueous solution
Experimental: The foregoing amphiphilic nonsteroid anti-inflammatory platinum is dissolved in DMF, dropped into an aqueous solution at room temperature, and the DMF is removed by dialysis to obtain an amphiphilic nonsteroid anti-inflammatory platinum nanoparticle solution. The dynamic light scattering results of the antitumor cisplatin-tonifamic acid nanoparticles prepared in this embodiment are shown in FIG. 3, and the means particle size of the nanoparticles is 157 nm.
CDDP (150 mg), AgNO3 (113 mg), tolfenamic acid (131 mg) and Na2CO3 (35.3 mg) are added to a round-bottom flask, then 10 ml of water is added and stirred at room temperature for 24 h in a dark place. The AgCl precipitate is centrifugally discarded, and the filtrate is dried in vacuum. The crude product is purified by silica gel column chromatography using an eluent of methanol:chloroform=1:9 to obtain the cisplatin-tolfenamic acid-based complex in a yield of 53%. The chemical structure of the complex synthesized in this embodiment is as shown in Formula 1. […]

## Cc1c(Cl)cccc1[N]1c2ccccc2C(=O)[O][Pt]1([NH2])[NH2] [Embodiment 1, cisplatin-tolfenamic acid-based complex]
  means particle size of the nanoparticles: 157 nm
